Source: patent publication US20120065187A1 (ALCON RESEARCH, LTD, priority 2008, published 2012)
pEC50: −log10 of the molar value. Counter-ions that a name gives are not always drawn. Like-named read-outs stand apart in the source and are kept apart here.

How the values were obtained:
human H1 = target: T1, human H1 (Homo sapiens, UniProt P35367); experiment: In vitro histamine receptor cell-based assay (aequorin bioluminescence), H1 antagonism; conditions: CHO-K1 cells expressing human H1 and aequorin; histamine at EC80; read-out: H1 Antagonist EC50
T1 construct: host or cells: CHO-K1
T1 sequence (P35367 whole entry): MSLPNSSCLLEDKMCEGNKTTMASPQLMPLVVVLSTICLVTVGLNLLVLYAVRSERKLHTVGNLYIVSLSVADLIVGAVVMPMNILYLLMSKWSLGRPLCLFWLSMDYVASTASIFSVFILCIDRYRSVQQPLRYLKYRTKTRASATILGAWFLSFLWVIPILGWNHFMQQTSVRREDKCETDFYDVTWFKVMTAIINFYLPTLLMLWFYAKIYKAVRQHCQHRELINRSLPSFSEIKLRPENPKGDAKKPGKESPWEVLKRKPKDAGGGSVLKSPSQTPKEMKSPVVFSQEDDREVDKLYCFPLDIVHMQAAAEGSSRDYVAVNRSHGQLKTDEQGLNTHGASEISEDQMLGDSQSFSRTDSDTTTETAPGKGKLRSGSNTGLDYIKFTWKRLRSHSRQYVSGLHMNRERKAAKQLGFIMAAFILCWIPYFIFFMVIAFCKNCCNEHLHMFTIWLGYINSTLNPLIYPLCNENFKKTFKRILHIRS
Description: (§1) The cell-based assays utilize an aequorin dependent bioluminescence signal. Doubly-transfected, stable CHO-K1 cell lines expressing human H1 or H4, mitochondrion-targeted aequorin, and (H4 only) human G protein Gα16 are obtained from Perkin-Elmer. Cells are maintained in F12 (Ham's) growth medium, containing 10% (vol./vol.) fetal bovine serum, penicillin (100 IU/mL), streptomycin (0.1 mg/mL), zeocin (0.25 mg/mL) and geneticin (0.40 mg/mL). Cell media components are from Invitrogen, Inc. One day prior to assay, the growth medium is replaced with the same, excluding zeocin and geneticin.
(§2) For assay preparation, growth medium is aspirated, and cells are rinsed with calcium-free, magnesium-free phosphate-buffered saline, followed by two to three minute incubation in Versene (Invitrogen, Inc.) at 37° C. Assay medium (DMEM:F12 [50:50], phenol-red free, containing 1 mg/mL protease-free bovine serum albumin) is added to collect the released cells, which are then centrifuged. The cell pellet is re-suspended in assay medium, centrifuged once more, and re-suspended in assay medium to a final density of 5×10^6 cells/mL. Coelenterazine-h dye (500 μM in ethanol) is added to a final concentration of 5 μM, and mixed immediately. The conical tube containing the cells is then wrapped with foil to protect the light-sensitive dye. The cells are incubated for four hours further at room temperature (approximately 21° C.) with end-over-end rotation to keep them in suspension.
(§3) Just before assay, the dye-loaded cells are diluted to 0.75×10^6 cells/mL (H1 receptor) or 1.5×10^6 cells/mL (H4 receptor) with additional assay medium. Cells are dispensed to 1536 well micro-titer plates at 3 μL/well. To assay receptor antagonism, 60 nl of 100× concentration test compounds in 100% dimethyl sulfoxide (DMSO) are dispensed to the wells, one compound per well, by passive pin transfer, and the plates are incubated for 15 minutes at room temperature. Assay plates are then transferred to a Lumilux bioluminescence plate reader (Perkin-Elmer) equipped with an automated 1536 disposable tip pipette. The pipette dispenses 3 μL/well of agonist (histamine, at twice the final concentration, where final concentration is a previously determined EC80) in assay medium, with concurrent bioluminescence detection. Agonist activity of test compounds is excluded by separate assays that measure response to test compounds immediately, without added histamine agonist.
(§4) CCD image capture on the Lumilux includes a 5 second baseline read prior to agonist addition, and generally a 40 second read per plate after agonist addition. A decrease in bioluminescence signal (measured either as area-under-the-curve, or maximum signal amplitude minus minimum signal amplitude) correlates with receptor antagonism in a dose dependent manner. The negative control is DMSO lacking any test compound. For antagonist assays, the positive controls are diphenhydramine (2-Diphenylmethoxy-N,N-dimethylethylamine, 10 μM final concentration, H1 receptor) or JNJ7777120 (1-[(5-Chloro-1H-indol-2-yl)carbonyl]-4-methyl-piperazine, 10 μM final concentration, H4 receptor). Efficacy is measured as a percentage of positive control activity.

human H4 = target: T2, human H4 (Homo sapiens, UniProt Q9H3N8); experiment: In vitro histamine receptor cell-based assay (aequorin bioluminescence), H4 antagonism
T2 construct: host or cells: CHO-K1
T2 sequence (Q9H3N8 whole entry): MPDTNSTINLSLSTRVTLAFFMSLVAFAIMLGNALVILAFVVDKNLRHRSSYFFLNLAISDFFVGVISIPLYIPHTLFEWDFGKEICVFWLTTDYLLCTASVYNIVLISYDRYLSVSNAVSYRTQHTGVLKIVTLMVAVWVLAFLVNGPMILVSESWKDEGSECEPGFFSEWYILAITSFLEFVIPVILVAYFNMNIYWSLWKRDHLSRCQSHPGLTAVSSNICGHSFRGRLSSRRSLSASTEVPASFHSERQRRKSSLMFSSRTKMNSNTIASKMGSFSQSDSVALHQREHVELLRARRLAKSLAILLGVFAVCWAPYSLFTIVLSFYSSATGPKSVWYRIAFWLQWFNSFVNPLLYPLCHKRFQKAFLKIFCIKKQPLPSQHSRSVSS
Description: as §1, §2
as §3, with “Assay plates are then transferred to a Lumilux bioluminescence plate reader (Perkin-Elmer) equipped with an automated 1536 disposable tip pipette.” left out
as §4

[1] = CHO-K1 cells expressing human H4, aequorin and Gα16, histamine at EC80, read-out: H4 Antagonist EC50

| Structure (SMILES) | pEC50 (human H1) | pEC50 (human H4; [1]) | pEC50 (human H4) |
| --- | --- | --- | --- |
| Fc1cc2c(cc1C(F)(F)F)nc(N1CCNCC1)c1nncn12 [Example 43, 8-Fluoro-4-(piperazin-1-yl)-7-(trifluoromethyl)-[1,2,4]triazolo[4,3-a]quinoxaline] | < 5.00 | > 5.00 |  |
| CN1CCN(c2nc3ccc(C(F)(F)F)c(F)c3n3cnnc23)CC1 [Example 236, 9-fluoro-4-(4-methylpiperazin-1-yl)-8-(trifluoromethyl)-[1,2,4]triazolo[4,3-a]quinoxaline] | < 5.00 | > 5.00 |  |
| CN1CCN(c2nc3cc(C(F)(F)F)ccc3n3cnnc23)CC1 [Example 25, 4-(4-methylpiperazin-1-yl)-7-(trifluoromethyl)-[1,2,4]triazolo[4,3-a]quinoxaline] | < 5.00 | > 5.00 |  |
| CN1CCN(c2nc3cc(C(F)(F)F)c(Cl)cc3n3cnnc23)CC1 [Example 46, 8-Chloro-4-(4-methylpiperazin-1-yl)-7-(trifluoromethyl)-[1,2,4]triazolo[4,3-a]quinoxaline] | < 5.00 | > 5.00 |  |
| Clc1cc2nc(N3CCNCC3)c3nncn3c2cc1Cl [Example 168, 7,8-dichloro-4-(piperazin-1-yl)-[1,2,4]triazolo[4,3-a]quinoxaline] | < 5.00 | > 5.00 |  |
| CNC1CCN(c2nc3ccc(Cl)cc3n3cnnc23)C1 (centres unmarked) [Example 60, 1-(8-chloro-[1,2,4]triazolo[4,3-a]quinoxalin-4-yl)-N-methylpyrrolidin-3-amine] | < 5.00 | > 5.00 |  |
| COc1ccc2nc(N3CCN(C)CC3)n3nc(C)nc3c2c1 [Example 101, 9-Methoxy-2-methyl-5-(4-methylpiperazin-1-yl)-[1,2,4]triazolo[1,5-c]quinazoline] | < 5.00 | > 5.00 |  |
| CN1CCN(c2nc3cc(F)c(Br)cc3n3cnnc23)CC1 [Example 185, 8-bromo-7-fluoro-4-(4-methylpiperazin-1-yl)-[1,2,4]triazolo[4,3-a]quinoxaline] | < 5.00 | > 5.00 |  |
| CCc1ccc2nc(N3CCNCC3)n3nc(C)nc3c2c1 [Example 140, 9-ethyl-2-methyl-5-(piperazin-1-yl)-[1,2,4]triazolo[1,5-c]quinazoline] | < 5.00 | > 5.00 |  |
| CN1CCN(c2nc3cc(F)c(C(F)(F)F)cc3n3nnnc23)CC1 [Example 187, 7-fluoro-4-(4-methylpiperazin-1-yl)-8-(trifluoromethyl)tetrazolo[1,5-a]quinoxaline] | < 5.00 | > 5.00 |  |
| Cc1nc2c3ccc(Cl)cc3nc(N3CCNCC3)n2n1 [Example 106, 8-Chloro-2-methyl-5-(piperazin-1-yl)-[1,2,4]triazolo[1,5-c]quinazoline] | < 5.00 | > 5.00 |  |
| CN1CCN(c2nc3cc(F)c(F)cc3n3ccnc23)CC1 [Example 181, 7,8-difluoro-4-(4-methylpiperazin-1-yl)imidazo[1,2-a]quinoxaline] | < 5.00 | > 5.00 |  |
| Cc1cn2c(n1)c(N1CCNCC1)nc1ccc(Cl)cc12 [Example 10, 8-Chloro-2-methyl-4-(piperazin-1-yl)imidazo[1,2-a]quinoxaline] | < 5.00 | < 5.00 |  |
| CCc1ccc2nc(N3CCN(C)CC3)c3nncn3c2c1 [Example 90, 8-ethyl-4-(4-methylpiperazin-1-yl)-[1,2,4]triazolo[4,3-a]quinoxaline] | < 5.00 | > 5.00 |  |
| NC1CCN(c2nc3ccc(Cl)cc3n3cnnc23)CC1 [Example 81, 1-(8-chloro-[1,2,4]triazolo[4,3-a]quinoxalin-4-yl)piperidin-4-amine] | < 5.00 | < 5.00 |  |
| C[C@@H]1CN(c2nc3ccc(Cl)cc3n3cnnc23)C[C@H](C)N1 [Example 83, 8-chloro-4-((3S,5R)-3,5-dimethylpiperazin-1-yl)-[1,2,4]triazolo[4,3-a]quinoxaline] | < 5.00 | < 5.00 |  |

| Structure (SMILES) | pEC50 (human H1) | pEC50 (human H4; [1]) | pEC50 (human H4) |
| --- | --- | --- | --- |
| Clc1ccc2nc(N3CC4CC3CN4)c3nncn3c2c1 (centres unmarked) [Example 67, 4-(2,5-diazabicyclo[2.2.1]heptan-2-yl)-8-chloro-[1,2,4]triazolo[4,3-a]quinoxaline] | < 5.00 | > 5.00 |  |
| Cc1cn2c(n1)c(N1CCN(C)CC1)nc1cc(Cl)ccc12 [Example 11, 7-Chloro-2-methyl-4-(4-methylpiperazin-1-yl)imidazo[1,2-a]quinoxaline] | < 5.00 | > 5.00 |  |
| Cc1nc2c3cc(C(F)(F)F)cc(F)c3nc(N3CCNCC3)n2n1 [Example 128, 7-fluoro-2-methyl-5-(piperazin-1-yl)-9-(trifluoromethyl)-[1,2,4]triazolo[1,5-c]quinazoline hydrochloride] | < 5.00 | > 5.00 |  |
| CN1CCN(c2nc3c(F)c(C(F)(F)F)ccc3n3cnnc23)CC1 [Example 170, 6-fluoro-4-(4-methylpiperazin-1-yl)-7-(trifluoromethyl)-[1,2,4]triazolo[4,3-a]quinoxaline] | < 5.00 | > 5.00 |  |
| Cc1ccc2nc(N3CCNCC3)c3nncn3c2c1 [Example 22, 8-Methyl-4-(piperazin-1-yl)-[1,2,4]triazolo[4,3-a]quinoxaline] | < 5.00 | > 5.00 |  |
| CCc1nnc2c(N3CCN(C)CC3)nc3ccc(Cl)cc3n12 [Example 86, 8-chloro-1-ethyl-4-(4-methylpiperazin-1-yl)-[1,2,4]triazolo[4,3-a]quinoxaline] | < 5.00 | > 5.00 |  |
| Clc1ccc2c(c1)N1CCN=C1C(N1CCNCC1)=N2 [Example 6, 8-Chloro-4-(piperazin-1-yl)-1,2-dihydroimidazo[1,2-a]quinoxaline] | < 5.00 | > 5.00 |  |
| FC(F)(F)c1ccc2c(c1)nc(N1CCNCC1)c1nccn12 [Example 183, 4-(piperazin-1-yl)-7-(trifluoromethyl)imidazo[1,2-a]quinoxaline hydrochloride] | < 5.00 |  | < 5.00 |
| CN1CCN(c2nc3ccc(Cl)cc3c3nc(Cc4ccccc4)nn23)CC1 [Example 118, 2-Benzyl-9-chloro-5-(4-methylpiperazin-1-yl)-[1,2,4]triazolo[1,5-c]quinazoline] | < 5.00 | < 5.00 |  |
| CN1CCN(c2nc3ccc(C(F)(F)F)cc3c3c[nH]nc23)CC1 [Example 157, 4-(4-Methylpiperazinyl)-8-(trifluoromethyl)pyrazolo[3,4-c]quinoline] | < 5.00 | > 5.00 |  |
| Fc1cc2nc(N3CCNCC3)c3nnnn3c2cc1C(F)(F)F [Example 186, 7-fluoro-4-(piperazin-1-yl)-8-(trifluoromethyl)tetrazolo[1,5-a]quinoxaline] | < 5.00 | > 5.00 |  |
| FC(F)(F)c1ccc2nc(N3CCNCC3)c3nccn3c2c1 [Example 178, 4-(piperazin-1-yl)-8-(trifluoromethypimidazo[1,2-a]quinoxaline hydrochloride] | < 5.00 | > 5.00 |  |
| Cc1nnc2c(N3CCNCC3)nc3ccc(Cl)cc3n12 [Example 85, 8-chloro-1-methyl-4-(piperazin-1-yl)-[1,2,4]triazolo[4,3-a]quinoxaline] | < 5.00 | < 5.00 |  |
| Fc1cc2c(cc1C(F)(F)F)nc(N1CCNCC1)c1nnnn12 [Example 200, 8-fluoro-4-(piperazin-1-yl)-7-(trifluoromethyl)tetrazolo[1,5-a]quinoxaline] | < 5.00 | > 5.00 |  |
| CN1CCN(c2nc3cc(C(F)(F)F)c(F)cc3n3nnnc23)CC1 [Example 201, 8-fluoro-4-(4-methylpiperazin-1-yl)-7-(trifluoromethyl)tetrazolo[1,5-a]quinoxaline] | < 5.00 | > 5.00 |  |
